Reference: patent US11767320B2, “Bicyclic dione compounds as inhibitors of KRAS” (INCYTE CORPORATION, priority 2020, dated 2023)

These compounds were tested against KRAS G12C (Homo sapiens, UniProt P01116, G12C) (assay: GDP-GTP exchange assay (fluorescence based guanine nucleotide exchange, bodipy-GDP for GppNHp, SOS1)). Conditions: bodipy-loaded KRAS G12C, 2 hours pre-incubation with inhibitor, read-out: G12C_exchange (KRAS_G12C exchange assay IC50).
Assay type: biochemical
Method: The inhibitor potency of the exemplified compounds was determined in a fluorescence based guanine nucleotide exchange assay, which measures the exchange of bodipy-GDP (fluorescently labeled GDP) for GppNHp (Non-hydrolyzable GTP analog) to generate the active state of KRAS in the presence of SOS1 (guanine nucleotide exchange factor). Inhibitors were serially diluted in DMSO and a volume of 0.1 μL was transferred to the wells of a black low volume 384-well plate. 5 μL/well volume of bodipy-loaded KRAS G12C diluted to 5 nM in assay buffer (25 mM Hepes pH 7.5, 50 mM NaCl, 10 mM MgCl2 and 0.01% Brij-35) was added to the plate and pre-incubated with inhibitor for 2 hours at ambient temperature. Appropriate controls (enzyme with no inhibitor or with a G12C inhibitor (AMG-510)) were included on the plate. The exchange was initiated by the addition of a 5 μL/well volume containing 1 mM GppNHp and 300 nM SOS1 in assay buffer. The 10 μL/well reaction concentration of the bodipy-loaded KRAS G12C, GppNHp, and SOS1 were 5-25 nM, 500 uM, and 150 nM, respectively. The reaction plates were incubated at ambient temperature for 2 hours, a time estimated for complete GDP-GTP exchange in the absence of inhibitor. For the KRAS G12D and G12V mutants, similar guanine nucleotide exchange assays were used with 2.5 nM as final concentration for the bodipy loaded KRAS proteins and with 4 hours and 3 hours incubation after adding GppNHp-SOS1 mixture for G12D and G12V, respectively. A cyclic peptide described to selectively bind G12D mutant (Sakamoto et al., BBRC 484.3 (2017), 605-611) or internal compounds with confirmed binding were used as positive controls in the assay plates. Fluorescence intensities were measured on a PheraStar plate reader instrument (BMG Labtech) with excitation at 485 nm and emission at 520 nm.
Either GraphPad prism or XLfit was used to analyze the data. The IC50 values were derived by fitting the data to a four parameter logistic equation producing a sigmoidal dose-response curve with a variable Hill coefficient. Prism equation: Y=Bottom+(Top−Bottom)/(1+10^((Log IC50−X)*Hill slope)); XLfit equation: Y=(A+((B−A)/(1+((X/C)^D)))) where X is the logarithm of inhibitor concentration and Y is the response.

Chain of KRAS G12C (P01116 1-188 isoform P01116-2 G12C): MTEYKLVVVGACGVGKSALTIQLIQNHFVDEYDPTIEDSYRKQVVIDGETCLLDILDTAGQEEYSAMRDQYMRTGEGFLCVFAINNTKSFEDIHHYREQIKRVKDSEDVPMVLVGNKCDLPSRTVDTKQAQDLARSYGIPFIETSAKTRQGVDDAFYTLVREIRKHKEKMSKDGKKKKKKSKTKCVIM

SMILES | IC50 [nM]
C=CC(=O)N1CC(Cn2c(=O)c(=O)n(-c3c(C(C)C)cccc3C(C)C)c3nc(-c4ccccc4F)c(Cl)cc32)C1 [Example 3, 1-((1-acryloylazetidin-3-yl)methyl)-7-chloro-4-(2,6-diisopropylphenyl)-6-(2-fluorophenyl)-1,4-dihydropyrido[2,3-b]pyrazine-2,3-dione] | 100 to 1000
C=CC(=O)N1CC(F)(Cn2c(=O)c(=O)n(-c3c(C)ccnc3C(C)C)c3nc(-c4cccc5ccc(=O)[nH]c45)c(Cl)cc32)C1 [Example 32, 1-((1-acryloyl-3-fluoroazetidin-3-yl)methyl)-7-chloro-4-(2-isopropyl-4-methylpyridin-3-yl)-6-(2-oxo-1,2-dihydroquinolin-8-yl)-1,4-dihydropyrido[2,3-b]pyrazine-2,3-dione] | 100 to 1000
C=CC(=O)N1CC(O)(Cn2c(=O)c(=O)n(-c3c(C)ccnc3C(C)C)c3nc(-c4c(F)ccc(F)c4O)c(Cl)cc32)C1 [Example 44, 1-((1-acryloyl-3-hydroxyazetidin-3-yl)methyl)-7-chloro-6-(3,6-difluoro-2-hydroxyphenyl)-4-(2-isopropyl-4-methylpyridin-3-yl)-1,4-dihydropyrido[2,3-b]pyrazine-2,3-dione] | 100 to 1000
C=CC(=O)N1CC(F)(Cn2c(=O)c(=O)n(-c3c(C)ccnc3C(C)C)c3nc(-c4cccnc4N)c(Cl)cc32)C1 [Example 31, 1-((1-acryloyl-3-fluoroazetidin-3-yl)methyl)-6-(2-aminopyridin-3-yl)-7-chloro-4-(2-isopropyl-4-methylpyridin-3-yl)-1,4-dihydropyrido[2,3-b]pyrazine-2,3-dione] | 100 to 1000
C=CC(=O)N1CC(F)(Cn2c(=O)c(=O)n(-c3c(C)ccnc3C(C)C)c3nc(-c4cccc5cn[nH]c45)c(Cl)cc32)C1 [Example 29, 1-((1-acryloyl-3-fluoroazetidin-3-yl)methyl)-7-chloro-6-(1H-indazol-7-yl)-4-(2-isopropyl-4-methylpyridin-3-yl)-1,4-dihydropyrido[2,3-b]pyrazine-2,3-dione] | 100 to 1000
C=CC(=O)N1CC(Cn2c(=O)c(=O)n(-c3c(CC)cccc3CC)c3nc(-c4ccccc4F)c(Cl)cc32)C1 [Example 4, 1-((1-acryloylazetidin-3-yl)methyl)-7-chloro-4-(2,6-diethylphenyl)-6-(2-fluorophenyl)-1,4-dihydropyrido[2,3-b]pyrazine-2,3-dione] | 100 to 1000
C=CC(=O)N1CC(O)(Cn2c(=O)c(=O)n(-c3c(C)ccnc3C(C)C)c3nc(-c4ccccc4F)c(Cl)cc32)C1 [Example 43, 1-((1-acryloyl-3-hydroxyazetidin-3-yl)methyl)-7-chloro-6-(2-fluorophenyl)-4-(2-isopropyl-4-methylpyridin-3-yl)-1,4-dihydropyrido[2,3-b]pyrazine-2,3-dione] | 100 to 1000
C=CC(=O)N1CC(O)(Cn2c(=O)c(=O)n(-c3c(C)ccnc3C(C)C)c3nc(-c4c(O)cc(C)cc4F)c(Cl)cc32)C1 [Example 46, 1-((1-acryloyl-3-hydroxyazetidin-3-yl)methyl)-7-chloro-6-(2-fluoro-6-hydroxy-4-methylphenyl)-4-(2-isopropyl-4-methylpyridin-3-yl)-1,4-dihydropyrido[2,3-b]pyrazine-2,3-dione] | 100 to 1000
C=CC(=O)N1CC(Cn2c(=O)c(=O)n(-c3c(C(C)C)cccc3C(C)C)c3nc(-c4cccc5ccccc45)c(Cl)cc32)C1 [Example 6, 1-((1-acryloylazetidin-3-yl)methyl)-7-chloro-4-(2,6-diisopropylphenyl)-6-(1-naphthyl)-1,4-dihydropyrido[2,3-b]pyrazine-2,3-dione] | 1000 to 5000
C=CC(=O)N1CCC(n2c(=O)c(=O)n(-c3c(CC)cccc3CC)c3nc(-c4c(O)cccc4F)c(Cl)cc32)CC1 [Example 2, 1-(1-acryloylpiperidin-4-yl)-7-chloro-4-(2,6-diethylphenyl)-6-(2-fluoro-6-hydroxyphenyl)-1,4-dihydropyrido[2,3-b]pyrazine-2,3-dione] | 1000 to 5000
C=CC(=O)N1CCC(n2c(=O)c(=O)n(-c3c(CC)cccc3CC)c3nc(-c4ccccc4F)c(Cl)cc32)CC1 [Example 1, 1-(1-acryloylpiperidin-4-yl)-7-chloro-4-(2,6-diethylphenyl)-6-(2-fluorophenyl)-1,4-dihydropyrido[2,3-b]pyrazine-2,3-dione] | 5000 to 10000
C=CC(=O)N1CC(Cn2c(=O)c(=O)n(-c3c(C)ccnc3C(C)C)c3nc(-c4ccccc4F)c(Cl)cc32)(OC)C1 [Example 41, 1-((1-acryloyl-3-methoxyazetidin-3-yl)methyl)-6-(2-fluorophenyl)-7-chloro-4-(2-isopropyl-4-methylpyridin-3-yl)-1,4-dihydropyrido[2,3-b]pyrazine-2,3-dione] | 100 to 1000
C=CC(=O)N1CC(F)(Cn2c(=O)c(=O)n(-c3c(C)ccnc3C(C)C)c3nc(-c4cccc5nn[nH]c45)c(Cl)cc32)C1 [Example 30, 1-((1-acryloyl-3-fluoroazetidin-3-yl)methyl)-6-(1H-benzo[d][1,2,3]triazol-7-yl)-7-chloro-4-(2-isopropyl-4-methylpyridin-3-yl)-1,4-dihydropyrido[2,3-b]pyrazine-2,3-dione] | 100 to 1000

Continued, values first:

IC50 [nM] | SMILES
100 to 1000 | C=CC(=O)N1CC(F)(Cn2c(=O)c(=O)n(-c3c(C)ccnc3C(C)C)c3nc(-c4c(F)ccc(O)c4O)c(Cl)cc32)C1 [Example 26, 1-((1-acryloyl-3-fluoroazetidin-3-yl)methyl)-7-chloro-6-(6-fluoro-2,3-dihydroxyphenyl)-4-(2-isopropyl-4-methylpyridin-3-yl)-1,4-dihydropyrido[2,3-b]pyrazine-2,3-dione]
100 to 1000 | [2H]C([2H])(n1c(=O)c(=O)n(-c2c(C)ccnc2C(C)C)c2nc(-c3ccnc(C)c3Cl)c(Cl)cc21)C1(F)CN(C(=O)C=C)C1 [Example 54, 1-((1-acryloyl-3-fluoroazetidin-3-yl)methyl-d2)-7-chloro-6-(3-chloro-2-methylpyridin-4-yl)-4-(2-isopropyl-4-methylpyridin-3-yl)-1,4-dihydropyrido[2,3-b]pyrazine-2,3-dione]
≤ 100 | [2H]C([2H])(n1c(=O)c(=O)n(-c2c(C)ccnc2C(C)C)c2nc(-c3c(O)cccc3Cl)c(Cl)cc21)C1(F)CN(C(=O)C=C)C1 [Example 49, 1-((1-acryloyl-3-fluoroazetidin-3-yl)methyl-d2)-7-chloro-6-(2-chloro-6-hydroxyphenyl)-4-(2-isopropyl-4-methylpyridin-3-yl)-1,4-dihydropyrido[2,3-b]pyrazine-2,3-dione]
100 to 1000 | [2H]C([2H])(n1c(=O)c(=O)n(-c2c(C)ccnc2C(C)C)c2nc(-c3ccccc3-c3ccccc3)c(Cl)cc21)C1(F)CN(C(=O)C=C)C1 [Example 55, 6-([1,1′-biphenyl]-2-yl)-1-((1-acryloyl-3-fluoroazetidin-3-yl)methyl-d2)-7-chloro-4-(2-isopropyl-4-methylpyridin-3-yl)-1,4-dihydropyrido[2,3-b]pyrazine-2,3-dione]
1000 to 5000 | [2H]C([2H])(n1c(=O)c(=O)n(-c2c(C)ccnc2C(C)C)c2nc(-c3cncc(C)c3C)c(Cl)cc21)C1(F)CN(C(=O)C=C)C1 [Example 52, 1-((1-acryloyl-3-fluoroazetidin-3-yl)methyl-d2)-7-chloro-6-(4,5-dimethylpyridin-3-yl)-4-(2-isopropyl-4-methylpyridin-3-yl)-1,4-dihydropyrido[2,3-b]pyrazine-2,3-dione]
≤ 100 | [2H]C([2H])(n1c(=O)c(=O)n(-c2c(C)ccnc2C(C)C)c2nc(-c3c(O)cc(C)cc3F)c(Cl)cc21)C1(F)CN(C(=O)C=C)C1 [Example 48, 1-((1-acryloyl-3-fluoroazetidin-3-yl)methyl-d2)-7-chloro-6-(2-fluoro-6-hydroxy-4-methylphenyl)-4-(2-isopropyl-4-methylpyridin-3-yl)-1,4-dihydropyrido[2,3-b]pyrazine-2,3-dione]
≤ 100 | [2H]C([2H])(n1c(=O)c(=O)n(-c2c(C)ccnc2C(C)C)c2nc(-c3c(O)cccc3Cl)c(Cl)cc21)C1(F)CN(C(=O)C(=C)F)C1 [Example 50, 7-chloro-6-(2-chloro-6-hydroxyphenyl)-1-((3-fluoro-1-(2-fluoroacryloyl)azetidin-3-yl)methyl-d2)-4-(2-isopropyl-4-methylpyridin-3-yl)-1,4-dihydropyrido[2,3-b]pyrazine-2,3-dione]
≤ 100 | [2H]C([2H])(n1c(=O)c(=O)n(-c2c(C)ccnc2C(C)C)c2nc(-c3cccc4ccccc34)c(Cl)cc21)C1(F)CN(C(=O)C=C)C1 [Example 53, 1-((1-acryloyl-3-fluoroazetidin-3-yl)methyl-d2)-7-chloro-4-(2-isopropyl-4-methylpyridin-3-yl)-6-(naphthalen-1-yl)-1,4-dihydropyrido[2,3-b]pyrazine-2,3-dione]
